Reference: US20140187426A1, “CROP ENHANCEMENT” (SYNGENTA PARTICIPATIONS AG, priority 2011, published 2014)

Tests used:
Type in all cases: in vivo
Poa annua [1] = assay: Turf colour assessment, golf course fairway trial
Source text: (§1) A trial was setup to assess crop (turf) enhancement effects of cis-jasmone on Poa annua in a golf course […]. Each treatment was applied as a spray to the turfgrass. Assessments of turf colour and quality were made at several intervals after application; the results are expressed on a scale of 1 (poor) to 10 (good).

summer barley (Pasadena) = assay: Glasshouse trial, lodging of summer barley after leaf spray; conditions: for % lodging 30 DAA Summary barley: leaf spray at growth stage 30, 30 days after application
Source text: (§2) A glasshouse trial was setup to assess growth effects of cis-jasmone on summer barley (Pasadena) and winter rye (Reknit).
(§3) Each treatment was applied as a spray to the leaves of the plant at plant growth stage 30 (start of stem elongation). Assessments of lodging were made 30 days after application; the results are expressed as percentage lodging in Table 2.

Poa annua [2] = assay: Turf quality assessment, golf course fairway trial
Source text: as §1

winter rye (Reknit) = assay: Glasshouse trial, lodging of winter rye after leaf spray; conditions: for % lodging 30 DAA Winter rye: leaf spray at growth stage 30, 30 days after application
Source text: as §2, §3

hybrid bermudagrass = assay: Turf growth (clipping weights), golf course fairway trial; conditions: for Clipping wt (g) 32 DAA (1): 3 apps - 4 week interval, 32 days after application 1
Source text: A trial was setup to assess crop enhancement effects of cis-jasmone on a hybrid bermudagrass golf course […]. Each treatment was applied as a spray to the turfgrass. Assessments of turf growth (clipping weights in grams) were made at several intervals after application.

[3] = test system: summer oil seed rape variety Jumbo; assay: Glasshouse trial, leaf chlorophyll content (Dualex), variety Jumbo
Source text: (§4) A glasshouse trial was setup to assess growth effects of cis-jasmone on summer oil seed rape varieties Jumbo and Senator. Each treatment was applied as a spray to the leaves of the plant at plant growth stage 13 (3 leaves). Three replicates of 2 plants were sowed in pots in the greenhouse. Assessments of chlorophyll content of the leaves were made using the Dualex technique 25 days after application; the results are expressed as Dualex units of Chlorophyll in Table 8.

creeping bentgrass = assay: Turf colour assessment, golf course green trial; conditions: for Plant Colour 14DAA (2) / Plant Colour 14 DAA (3) / Plant Colour 7AA (2): scale 1 (poor) to 10 (good), 3 apps - 4 week interval; for Plant Colour 14DAA (2): 14 days after application 2; for Plant Colour 14 DAA (3): 14 days after application 3; for Plant Colour 7AA (2): after application 2
Source text: A trial was setup to assess crop (turf) enhancement effects of cis-jasmone on a creeping bentgrass golf course green. Each treatment was applied as a spray to the turfgrass. Assessments of turf colour and quality were made at several intervals after application; the results are expressed on a scale of 1 (poor) to 10 (good) in Table 5.

[4] = test system: summer oil seed rape variety Senator; assay: Glasshouse trial, leaf chlorophyll content (Dualex), variety Senator
Source text: as §4

[5] = during the entire study, versus untreated check
[6] = scale 1 (poor) to 10 (good), 50 g ai/ha, 4 applications on a 4 week schedule, 9-Jul
[7] = scale 1 (poor) to 10 (good), 50 g ai/ha, 4 applications on a 4 week schedule, 16-Jul
[8] = scale 1 (poor) to 10 (good), 50 g ai/ha, 4 applications on a 4 week schedule, 17-Jun

CC/C=C\CC1=C(C)CCC1=O [Cis-jasmone (CJN), cis-jasmone]
effect on turf colour (in words) (Poa annua [1]; [5]): significantly increased turf colour
Turf colour 4-June (Poa annua [1]; scale 1 (poor) to 10 (good), 50 g ai/ha, 4 applications on a 4 week schedule, 4-June): 7.80 b
Turf colour 9-Jul (Poa annua [1]; [6]): 8.2 a
Turf colour 10-June (Poa annua [1]; scale 1 (poor) to 10 (good), 50 g ai/ha, 4 applications on a 4 week schedule, 10-June): 8.16 a
Turf colour 14-May (Poa annua [1]; scale 1 (poor) to 10 (good), 50 g ai/ha, 4 applications on a 4 week schedule, 14-May): 5.8 b
Turf colour 16-Jul (Poa annua [1]; [7]): 7.96 a
Turf colour 17-Jun (Poa annua [1]; [8]): 7.80 a
Turf colour 21-May (Poa annua [1]; scale 1 (poor) to 10 (good), 50 g ai/ha, 4 applications on a 4 week schedule, 21-May): 8.08 b
Turf colour 28-May (Poa annua [1]; scale 1 (poor) to 10 (good), 50 g ai/ha, 4 applications on a 4 week schedule, 28-May): 6.00 b
% lodging 30 DAA Summary barley (summer barley (Pasadena); 150 g AI/ha): 70.0%
% lodging 30 DAA Summary barley (summer barley (Pasadena); 300 g AI/ha): 60.0%
initial growth (in words) (summer barley (Pasadena); summer barley): faster initial growth
effect on lodging (in words) (summer barley (Pasadena); summer barley, versus untreated check): significantly increases lodging
effect on turf quality (in words) (Poa annua [2]; [5]): significantly increased turf quality
Turf quality 3-Jul (Poa annua [2]; scale 1 (poor) to 10 (good), 50 g ai/ha, 4 applications on a 4 week schedule, 3-Jul): 8.46 a
Turf quality 9-Jul (Poa annua [2]; [6]): 8.42 a
Turf quality 10-Jun (Poa annua [2]; scale 1 (poor) to 10 (good), 50 g ai/ha, 4 applications on a 4 week schedule, 10-Jun): 8.2 a
Turf quality 16-Jul (Poa annua [2]; [7]): 8.1 a
Turf quality 17-Jun (Poa annua [2]; [8]): 8.8 a
Turf quality 23-Jul (Poa annua [2]; scale 1 (poor) to 10 (good), 50 g ai/ha, 4 applications on a 4 week schedule, 23-Jul): 8.18 a
Turf quality 24-Jun (Poa annua [2]; scale 1 (poor) to 10 (good), 50 g ai/ha, 4 applications on a 4 week schedule, 24-Jun): 8.74 a
Turf quality 31-Jul (Poa annua [2]; scale 1 (poor) to 10 (good), 50 g ai/ha, 4 applications on a 4 week schedule, 31-Jul): 7.96 a
% lodging 30 DAA Winter rye (winter rye (Reknit); 150 g AI/ha): 30.0%
% lodging 30 DAA Winter rye (winter rye (Reknit); 300 g AI/ha): 23.3%
effect on lodging (in words) (winter rye (Reknit); winter rye, versus untreated check): significantly increases lodging
Clipping wt (g) 32 DAA (1) (hybrid bermudagrass; 50 g ai/ha): 37 ab g
Clipping wt (g) 32 DAA (1) (hybrid bermudagrass; 100 g ai/ha): 45 a g
Clipping wt (g) 32 DAA (1) (hybrid bermudagrass; 150 g ai/ha): 25 c g
effect on clipping weights (in words) (hybrid bermudagrass; early in the trial, versus untreated check): significantly increased clipping weights
effect on chlorophyll content (in words) [3]: increased chlorophyll content
effect on turf colour (in words) (creeping bentgrass; [5]): significantly increased turf colour
Plant Colour 14DAA (2) (creeping bentgrass; 50 g ai/ha): 5.40 e
Plant Colour 14 DAA (3) (creeping bentgrass; 50 g ai/ha): 6.00 c
Plant Colour 7AA (2) (creeping bentgrass; 50 g ai/ha): 5.6
Plant Colour 14DAA (2) (creeping bentgrass; 100 g ai/ha): 6.00 c
Plant Colour 14 DAA (3) (creeping bentgrass; 100 g ai/ha): 6.00 c
Plant Colour 7AA (2) (creeping bentgrass; 100 g ai/ha): 5.7
Plant Colour 14DAA (2) (creeping bentgrass; 150 g ai/ha): 6.00 c
Plant Colour 14 DAA (3) (creeping bentgrass; 150 g ai/ha): 6.00 c
Plant Colour 7AA (2) (creeping bentgrass; 150 g ai/ha): 6.08
effect on chlorophyll content (in words) [4]: not
